In patent US20120321590A1, “BRIDGED POLYCYCLIC COMPOUNDS” (priority 2011, published 2012) one finds EC50 data, which are given here for 7 compounds.

pEC50: −log10 of the molar value.

Experiment [1] has as its system genotype 1b (Con1) dicistronic subgenomic replicon. Put plainly: Transient replicon assay, genotype 1b. Particulars: Hepatitis C virus, Huh-7, 96 h; Huh7-Lunet cells transfected with replicon RNA, cultured 4 days, luciferase activity. In kind it is cell-based, HCV. How it is done:
(§1) The transient replicon assay utilizes the genotype 1b (Con1) dicistronic subgenomic replicon. Genotype 1a activity was determined using a chimeric replicon containing the genotype 1b sequence for NS3 through NS5A nonstructural proteins and genotype 1a (H77) sequence for the NS5B region.
(§2) The RNA transcripts were generated using the Megascript T7 kit (Applied Biosystems, Foster City, Calif.). Exponentially growing Huh7-Lunet cells were mixed with 4 μg of replicon RNA and plated into a 96-well plate Gene Pulser MXcell Electroporation System (Bio-Rad, Hercules, Calif.). Electroporation was immediately performed at 250 V and 750 μF capacitance with a single exponential waveform pulse. Transfected cells were transferred to Dulbecco modified Eagle medium in the presence of 10% FBS and plated into 96-well plates with 7,500 cells per well. Compounds at various concentrations were added to the cells after 2 hours and were cultured for 4 days. The cells were lysed with the Bright-Glo Reagent (Promega, Madison, Wis.) and luciferase activity was measured with a luminometer (Wallac 1420 Multilabel HTS Counter Victor 2). The background control was replicon cells treated with 100 nM BILN-2061, an inhibitor of the HCV protease. Dose responses were performed in triplicate and the values were averaged. All experiments were repeated at least three times to verify the reproducibility.
(§3) The EC50 values were determined using a standard four-parameter dose response equation.

A short description of experiment [2]: Transient replicon assay, genotype 1a chimeric replicon. The experiment is classed as cell-based, HCV. The following applies: Hepatitis C virus, genotype 1a / genotype 1b, Huh-7, 96 h, read-out: EC50 1a, Huh7-Lunet cells transfected with chimeric replicon RNA, cultured 4 days, luciferase activity. How it is done:
as §1, §2, §3
A general note: In antiviral work, replicon cells carry a viral genome segment that copies itself.

What is called pEC50 is the EC50 on a negative log10 scale, so that one unit is a factor of ten. `CS(=O)(=O)Nc1ccc2c(c1)S(=O)(=O)N=C(C1=C(O)[C@@H]3C4C5C6CC7C4C7C(C65)[C@@H]3N(Cc3ccc(F)cc3)C1=O)N2` (racemic) [Example 1, rac-N-{3-[(4S,9R)-5-[(4-Fluorophenyl)methyl]-8-hydroxy-6-oxo-5-azahexacyclo[8.5.0.0^2,15.0^3,12.0^4,9.0^11,13]pentadec-7-en-7-yl]-1,1-dioxo-4H-1λ^6,2,4-benzothiadiazin-7-yl}methanesulfonamide]: the pEC50 in experiment [1] is 8.70; in experiment [2] it was 7.92.
The corresponding values for `CS(=O)(=O)Nc1ccc2c(c1)S(=O)(=O)N=C(C1=C(O)[C@@H]3C4CC5CC(C4)CC(C5)[C@@H]3N(Cc3ccc(F)cc3)C1=O)N2` (racemic) [Example 5, rac-N-{3-[(2S,7R)-3-[(4-Fluorophenyl)methyl]-6-hydroxy-4-oxo-3-azatetracyclo[8.3.1.1^8,12.0^2,7]pentadec-5-en-5-yl]-1,1-dioxo-4H-1λ^6,2,4-benzothiadiazin-7-yl}methanesulfonamide] are 7.96 and 6.71.
The corresponding values for `CS(=O)(=O)NCc1csc2c1S(=O)(=O)N=C(C1=C(O)[C@@H]3C4CC5CC(C4)CC(C5)[C@@H]3N(Cc3ccc(F)cc3)C1=O)N2` (racemic) [Example 6, rac-N-({3-[(2S,7R)-3-[(4-Fluorophenyl)methyl]-6-hydroxy-4-oxo-3-azatetracyclo[8.3.1.1^8,12.0^2,7]pentadec-5-en-5-yl]-1,1-dioxo-4H-1λ^6,5,2,4-thieno[2,3-e][1λ^6,2,4]thiadiazin-7-yl}methyl)methanesulfonamide] are 7.38 and 6.16.
The like results for `CS(=O)(=O)NCc1csc2c1S(=O)(=O)N=C(C1=C(O)[C@@H]3C4C5CC6C4C6C5[C@@H]3N(Cc3ccc(F)cc3)C1=O)N2` (mixture of isomers) [Example 9, rac-N-({3-[(1R,9S)-10-[(4-Fluorophenyl)methyl]-13-hydroxy-11-oxo-10-azapentacyclo[7.4.0.0^2,7.0^3,5.0^4,8]tridec-12-en-12-yl]-1,1-dioxo-4H-1λ^6,5,2,4-thieno[2,3-e][1λ^6,2,4]thiadiazin-7-yl}methyl)methanesulfonamide] were, in that order, 8.30 and 6.77.
`CS(=O)(=O)Nc1ccc2c(c1)S(=O)(=O)N=C(C1=C(O)C3C4C5C6C7C4C7C(C56)C3N(Cc3ccc(F)cc3)C1=O)N2` (racemic) [Example 10, rac-N-{3-[(1R,10S)-11-[(4-Fluorophenyl)methyl]-14-hydroxy-12-oxo-11-azahexacyclo[8.4.0.0^2,70.0^3,5.0^4,9.0^6,8]tetradec-13-en-13-yl]-1,1-dioxo-4H-1λ^6,2,4-benzothiadiazin-7-yl}methanesulfonamide]: the negative logarithm of the EC50 (pEC50) in experiment [1] is 9.00; in experiment [2], 8.10.
On to `CS(=O)(=O)NCc1csc2c1S(=O)(=O)N=C(C1=C(O)C3C4C5C6C7C4C7C(C56)C3N(Cc3ccc(F)cc3)C1=O)N2` (racemic) [Example 13, rac-N-({3-[(1R,10S)-11-[(4-Fluorophenyl)methyl]-14-hydroxy-12-oxo-11-azahexacyclo[8.4.0.0^2,7.0^3,5.0^4,9.0^6,8]tetradec-13-en-13-yl]-1,1-dioxo-4H-1λ^6,5,2,4-thieno[2,3-e][1λ^6,2,4]thiadiazin-7-yl}methyl)methanesulfonamide], for which the negative-log EC50 (pEC50) in experiment [1] is 8.70; in experiment [2], 7.44.
In experiment [1], `CS(=O)(=O)NCc1csc2c1S(=O)(=O)N=C(C1=C(O)C3C4C5C6C4C4C6C5C4C3N(Cc3ccc(F)cc3)C1=O)N2` (racemic) [Example 15, rac-N-({3-[(1R,10S)-11-[(4-fluorophenyl)methyl]-14-hydroxy-12-oxo-11-azahexacyclo[8.4.0.0^2,5.0^3,8.0^4,7.0^6,9]tetradec-13-en-13-yl]-1,1-dioxo-4H-1λ^6,5,2,4-thieno[2,3-e][1λ^6,2,4]thiadiazin-7-yl}methyl)methanesulfonamide] showed a negative logarithm of the EC50 (pEC50) of 7.89.
